Consider one molecule from patent US20050118290A1, “Compositions and method for treatment of steroid/nuclear receptor-mediated diseases” (University of Singapore, priority 2003, published 2005).

The target in the assay is T1, Glucocorticoid Receptor (Homo sapiens, UniProt P04150).
T1 construct: expressed in transfected cells
T1 sequence (P04150 1-777): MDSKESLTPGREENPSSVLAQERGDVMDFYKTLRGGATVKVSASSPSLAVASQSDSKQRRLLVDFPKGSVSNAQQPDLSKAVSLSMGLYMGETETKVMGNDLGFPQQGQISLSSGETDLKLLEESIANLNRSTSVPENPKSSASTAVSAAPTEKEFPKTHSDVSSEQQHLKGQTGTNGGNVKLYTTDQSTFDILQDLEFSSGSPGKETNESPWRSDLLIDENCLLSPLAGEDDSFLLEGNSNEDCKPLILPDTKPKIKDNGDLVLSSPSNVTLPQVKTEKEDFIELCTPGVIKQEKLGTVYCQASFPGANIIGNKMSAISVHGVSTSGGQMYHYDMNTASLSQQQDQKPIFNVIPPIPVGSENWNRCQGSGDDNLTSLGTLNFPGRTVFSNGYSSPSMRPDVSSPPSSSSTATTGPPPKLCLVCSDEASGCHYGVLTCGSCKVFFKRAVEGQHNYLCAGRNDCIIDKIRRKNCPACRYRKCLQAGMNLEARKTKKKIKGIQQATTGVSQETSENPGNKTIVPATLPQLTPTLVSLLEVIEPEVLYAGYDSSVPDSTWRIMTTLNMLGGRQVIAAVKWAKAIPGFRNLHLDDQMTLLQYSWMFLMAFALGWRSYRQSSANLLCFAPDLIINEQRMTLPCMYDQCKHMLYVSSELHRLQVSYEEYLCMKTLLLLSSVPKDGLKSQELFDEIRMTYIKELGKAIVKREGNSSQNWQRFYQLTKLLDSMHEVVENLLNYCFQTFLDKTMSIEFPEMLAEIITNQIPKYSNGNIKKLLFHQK
Put plainly: GR (ARE)2-Luc luciferase reporter gene assay. The assay is classed as cell-based. The following applies: HQ extract 0 ×10^−6 g/mL (hormone only). The method, then:
The capacity of HQ extract to activate other steroid receptors, namely AR, PR, GR, ERα and ERβ was examined. […] The (ARE)2-Luc plasmid consist of two repeats of Androgen Response Element (ARE) cloned upstream of the Luciferase Reporter gene in a pGL3-Basic vector (Promega).
AR, PR, GR and ERα and […] were determined by comparing luciferase activity in test cells with control cells exposed to vehicle (i.e., ethanol or methanol) only, analogous to the determination of PPAR activity as described in the previous examples.

Regarding `C[C@]12CCC(=O)C=C1CC[C@@H]1[C@@H]2[C@@H](O)C[C@@]2(C)[C@H]1CC[C@]2(O)C(=O)CO` [Hydrocortisone, hydrocortisone], the “Luciferase activity (Fold ± SE) Glucocorticoid Receptor/Hydrocortisone (1 × 10^−9 M)” value stood at 11014 ± 285 Fold.
